According to US4171312A, “Alkyl 7-[tetrahydro-4-(3-hydroxy-1-octenyl)-2,6-dioxo-4H-cyclopenta-1,3-dioxol -5-yl]-5-heptenoates” (G. D. Searle & Co., priority 1978, dated 1979):

Test system: fecundity of hamsters
Experiment: standardized test for capacity to inhibit the fecundity of hamsters (implantation rate)
Format: in vivo, Syrian golden hamsters
Experimental: The contraceptive utility of the instant compounds is evident from the results of a standardized test for their capacity to inhibit the fecundity of hamsters. In this test, sexually-mature female Syrian golden hamsters weighing at least 105 g are mated; and to each of a group of 5 is administered, daily for 5 days beginning on the first day sperm appears in the vagina between 8:15 and 10:00 a.m., test compound dissolved or suspended in an inert vehicle. The initial daily dose is ordinarily 50 mg/kg in 0.2 ml of corn oil, subcutaneously or intragastrically. A group of such animals to which is likewise administered vehicle alone serves as controls. Approximately 48 hr. after the 5th dose, the animals are sacrificed and their uteri and ovaries inspected for implantation sites and corpora lutea. If the total number of the former divided by the total number of the later (i.e., the implantation rate) affords a value amounting to 0.5 or less, the compound is considered to inhibit fecundity in the foregoing test. The ED50 of such a compound is determined by repeating the test at appropriate doosage(s). Potency is expressed as the ratio of the ED50 of estrone to that of compound.

[1] = mated female Syrian golden hamsters, 10 mg/kg subcutaneously in corn oil, daily for 5 days

## CCCCC[C@H](O)/C=C/C1C(C/C=C\CCCC(=O)OC)C(=O)C2OC(=O)OC21 (stereo partly drawn) [Example 1, methyl 7-[tetrahydro-4-(3S-hydroxy-1E-octenyl)-2,6-dioxo-4H-cyclopenta-1,3-dioxol-5-yl]-5Z-heptenoate]
Mesocricetus auratus, 120 h, mated female Syrian golden hamsters, daily for 5 days, read-out: ED50 (inhibition of fecundity)
  ED50: 5.6 mg/kg
[1]
  implantation rate (total implantation sites divided by total corpora lutea): 0.16
  inhibition of fecundity (implantation rate 0.5 or less): inhibited fecundity
Relative to estrone, hamster fecundity test
  potency (ratio of the ED50 of estrone to that of compound): approximately 1%
